Measurements as given in patent US10058097B2, “Methods to increase corn productivity” (Valent BioSciences Corporation, priority 2016, dated 2018).

What was measured:
Type in all cases: in vivo
hybrid corn = experiment: Corn trial Arcadia, IA 2015, yield; conditions: field; spray at V7; GA3 120 mg/liter, GB 10000 mg/liter, (S)-ABA 9 mg/liter
Description: In a corn trial conducted in Arcadia, Iowa, hybrid corn was sown Apr. 30, 2015 and sprayed at V7 with solutions containing a non-ionic surfactant (0.25%, v/v) at 15 gallons of spray volume.

potted corn plants [1] = experiment: Acute drought stress greenhouse study, potted corn, 7 and 14 days
Method: In a separate acute drought stress greenhouse study conducted in Long Grove, Ill., corn plants were sprayed at V4 stage with solutions containing a non-ionic surfactant (0.25%, v/v) at 30 gallons of spray solution/acre and growth was determined by shoot height increase 7 and 14 days later. After treatment corn plants were not watered with the exception of one treatment of control (aqueous surfactant solution) that were watered as needed (well-watered control).

potted corn plants [2] = experiment: Chronic drought stress greenhouse study, potted corn, 14 days; conditions: 20 Percent Volumetric Water Content, 120 mg/liter GA3, 3000 mg/liter GB, n = 5
Method: In drought stress studies, corn plants were sprayed at the V4 stage with solutions containing a non-ionic surfactant (0.25%, v/v) at 30 gallons of spray solution/acre and growth was determined by change in height from time of treatment or fresh and dry shoot weight measurements 14 days later.
In greenhouse drought stress studies, corn plants were treated and subsequently watered with an automated irrigation system that maintained the soil moisture in the pots at 45% or 20% volumetric water content (“VWC”). Plants set to 20% after treatment took about 4 days without the automated system adding water to those pots to reach 20% VWC and then the automated system added water as needed to maintain 20% VWC. Total soil moisture capacity was 45% VWC and 20% VWC represented drought stress conditions. This would be considered chronic stress, as a lower level of VWC was maintained throughout the experiment after treatment.

corn plants = experiment: Greenhouse study: growth of corn after V3 spray with GA3 or GB, nine days; conditions: non-stressed greenhouse; spray at V3; GA3 120 mg/liter, GB 3000 mg/liter; n = 7
Method: In several of the following examples, corn was grown in greenhouse conditions, which are defined as follows. Seeds of a commercial hybrid variety were sown in Pro-Mix® BX (Pro-Mix is a registered trademark of Premier Horticulture Ltd.) with the addition of Osmocote (14-14-14) and gypsum in three-liter pots. Greenhouses were kept at 25±3° C. under a 16:8 hour photoperiod, with illumination at canopy level of ˜250 μmoles m^−2s^−1. Corn was typically fertigated with Peters 21-5-20+micronutrients, calcium ammonium nitrate and magnesium sulfate. Typical growth rates for corn under these conditions ranged from 4-5 cm/day.
In most greenhouse studies, spray applications were made. These applications were made in a track sprayer outfitted with a 4001E Teejet® nozzle (Teejet is available from and a registered trademark of Spraying Systems Co., Glendale Heights, Ill., USA) and applied at 40 psi. Although application volumes did vary between some studies, generally, 30 gallons/acre of spray solution was applied. Following spray applications, plants were returned to the greenhouse. Typically, experiments were blocked according to plant size, and a randomized complete block design (RCB) was used.
In a greenhouse study conducted in Long Grove, Ill., corn plants were sprayed at V3 stage with solutions containing a non-ionic surfactant (0.25%, v/v) at 30 gallons of spray solution/acre and growth was followed for nine days.
Synergy was determined using the following formula, in which a synergy factor is calculated by the Abbott method: % Cexp=A+B−(AB/100), here % Cexp is the expected efficacy and “in which A and B are the increase in growth (or resistance to stress) levels given by the single [plant growth regulators]. If the ratio between the experimentally observed efficacy of the mixture Cobs and the expected efficacy of the mixture is greater than 1, synergistic interactions are present in the mixture” (Gisi, Synergistic Interaction of Fungicides in Mixtures, The American Phytopathological Society, 86:11, 1273-1279, 1996).
Based on a conservative approach, synergy was determined to be present at ratios of ≥1.10. When grown under non-stressed conditions, GA3 growth was synergized by the addition of 3,000 mg/liter glycine betaine (“GB”), with a synergy factor of 1.65 for growth and 1.68 for growth rate while dry weight/plant was not synergistic with a synergy factor of 0.95.

greenhouse-grown maize = experiment: Leaf chlorophyll by SPAD meter, GA3 dose +/- GB; conditions: without or with GB 10000 mg/liter
Method: In the same study, leaf chlorophyll was monitored by measurements with a SPAD meter (Minolta Model 502; Ramsey, N.J.). In this study, the chlorophyll level in the most recently fully-expanded leaf was measured at five different points and the results averaged.

[3] = acute drought stressed, 120 ppm GA3, 3000 ppm GB, spray at V4

C=C1C[C@]23C[C@@]1(O)CC[C@H]2[C@@]12C=C[C@H](O)[C@@](C)(C(=O)O1)[C@H]2[C@@H]3C(=O)O [GA3, gibberellic acid]
Yield (hybrid corn): 185.8 bu/acre | Shoot Growth 7 days after treatment as Percent Increase as compared to Drought Stressed Control (potted corn plants [1]; [3]): 116.9% | Shoot Growth 14 days after treatment as Percent Increase as compared to Drought Stressed Control (potted corn plants [1]; [3]): 118.7% | increased growth under drought as compared to controls (potted corn plants [1]; at 7 days): 16.9% | increased growth under drought as compared to controls (potted corn plants [1]; at 14 days): 18.7% | Percent Dry Weight of Drought Stressed Control (potted corn plants [2]): 103.32% | Percent Fresh Weight of Drought Stressed Control (potted corn plants [2]): 106.11% | Dry Weight/Plant (corn plants): 2.92 g | Growth Rate (corn plants): 4.76 cm/day | Growth over 9 days (corn plants): 42.9 cm | Chlorophyll (SPAD reading) 14 days (greenhouse-grown maize; GA3 30 mg/liter): 33.1 SPAD reading | Chlorophyll (SPAD reading) 14 days (greenhouse-grown maize; GA3 60 mg/liter): 32.9 SPAD reading | Chlorophyll (SPAD reading) 14 days (greenhouse-grown maize; GA3 120 mg/liter): 31.6 SPAD reading | Chlorophyll (SPAD reading) 14 days (greenhouse-grown maize; GA3 240 mg/liter): 31.1 SPAD reading
